Assay results taken from PubChem BioAssay (NCI).
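1) Cells in 96-well plates. 2) Compound, 48 h, 5 concentrations. 3) Linear interpolation between surrounding doses. 4) Unreached endpoint = highest concentration. TGI: total growth inhibition.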

Experiments:
Assay in all cases: NCI-60 cell line screen, 48 h
[1] = system: NCI-H460 lung
[2] = system: HCT-116 colon
[3] = system: 786-0 renal
[4] = system: HCT-15 colon
[5] = system: HCC-2998 colon
[6] = system: HOP-62 NSCLC
[7] = system: SF-295 CNS
[8] = system: SK-MEL-2 melanoma
[9] = system: MOLT-4 leukemia
[10] = system: MDA-MB-231 breast
[11] = system: A498 renal
[12] = system: MDA-N
[13] = system: SF-268 CNS
[14] = system: OVCAR-5 ovarian
[15] = system: A549 NSCLC
[16] = system: SW-620 colon
[17] = system: NCI/ADR-RES ovarian
[18] = system: SNB-75 CNS

SMILES | TGI [1] | TGI [2] | TGI [3] | TGI [4] | TGI [5] | TGI [6] | TGI [7] | TGI [8] | TGI [9] | TGI [10] | TGI [11] | TGI [12] | TGI [13] | TGI [14] | TGI [15] | TGI [16] | TGI [17] | TGI [18]
CN1C(=O)C2(C=CC(O)CC2)c2ccccc21 (stereo unspecified) | > 100 µM | > 100 µM | > 100 µM | > 100 µM | > 100 µM | > 100 µM | > 100 µM | > 100 µM | > 100 µM | > 100 µM | > 100 µM | > 100 µM | > 100 µM | > 100 µM | > 100 µM | > 100 µM | > 100 µM | > 100 µM
CC1(C)Cc2nc3c(cc2C(=O)C1C=N/C(C#N)=C(\N)C#N)C(=O)C(C=N/C(C#N)=C(\N)C#N)C(C)(C)C3 (stereo unspecified) | 8.21 µM | 2.96 µM | 3.47 µM | 4.48 µM | 10.3 µM | 6.94 µM | 7.56 µM | 4.69 µM | > 100 µM | 22.1 µM | 15.4 µM | 11.8 µM | 3.39 µM | 5.48 µM | 8.31 µM | > 20.5 µM | > 42 µM | 4.17 µM
O=c1[nH]nc(-c2ccccc2)n1/N=C/c1cccs1 | > 100 µM | > 100 µM | > 100 µM | > 100 µM | > 100 µM | > 100 µM | > 100 µM | > 100 µM | > 100 µM | > 100 µM | > 100 µM | > 100 µM | > 100 µM | > 100 µM | > 100 µM | > 100 µM | 93.8 µM | > 100 µM
N#CC(=N)c1ncn(-c2ccc(N)cc2)c1N | > 100 µM | > 100 µM | > 100 µM | > 100 µM | > 100 µM | > 100 µM | > 100 µM | > 100 µM | > 100 µM | > 100 µM | > 100 µM | > 100 µM | > 100 µM | > 100 µM | > 100 µM | > 100 µM | > 100 µM | > 100 µM
C/C=C(\C)C(O)C(C)C(O)C/C=C(C)/C=C(\C)C/C(C)=C/C/C=C(\C)C(O)C(C)c1ccc(CCC)c(=O)o1 (stereo unspecified) | 22.7 µM | 19.7 µM | 55.7 µM | 15.3 µM | 26.4 µM | 30.4 µM | 16.9 µM | 45 µM | > 100 µM | 26.4 µM | 50.6 µM | 22.8 µM | 37.5 µM | 37.9 µM | 27.8 µM | 28.4 µM | 29.7 µM | 25.2 µM
CC(=O)NC1(c2cc3ccccc3s2)CCCCCC1 | > 100 µM | > 100 µM | > 100 µM | > 100 µM | > 100 µM | > 100 µM | > 100 µM | 53.2 µM | 44.4 µM | > 100 µM | > 100 µM | > 100 µM | 40.9 µM | > 100 µM | > 100 µM | > 100 µM | > 100 µM | 92.2 µM
N#CC(Cc1ccccc1)N(CCC1=CCCCC1)Cc1ccccc1 (stereo unspecified) | > 100 µM | > 100 µM | > 100 µM | > 100 µM | > 100 µM | > 100 µM | > 100 µM | > 100 µM | 90.6 µM | > 100 µM | > 100 µM | > 100 µM | > 100 µM | > 100 µM | > 100 µM | > 100 µM | > 100 µM | > 100 µM
CN(/N=C/c1cccc2cccnc12)c1ccc(Cl)cc1[N+](=O)[O-] | > 100 µM | > 100 µM | > 100 µM | > 100 µM | > 100 µM | > 100 µM | > 100 µM | > 100 µM | > 100 µM | > 100 µM | > 100 µM | > 100 µM | > 100 µM | > 100 µM | > 100 µM | > 100 µM | > 100 µM | > 100 µM
N#Cc1c(N2CCC(O)C2)c2ccccc2n2c1nc1ccccc12 (stereo unspecified) | > 100 µM | > 100 µM | 50.6 µM | > 100 µM | > 100 µM | 46.6 µM | > 100 µM | > 100 µM | > 100 µM | 60.1 µM | 95.5 µM | > 100 µM | > 100 µM | > 100 µM | > 100 µM | > 100 µM | > 100 µM | 62.9 µM
COc1cc(/C=N/n2c(-c3ccccc3)nn(C(C)=O)c2=O)cc(OC)c1OC | > 39.2 µM | > 100 µM | > 53.1 µM | > 100 µM | 16.3 µM | > 100 µM | 26.9 µM | 18.4 µM | > 52.7 µM | 64.3 µM | 23.3 µM | 3.83 µM | > 100 µM | > 92.6 µM | > 94.6 µM | > 100 µM | > 42.6 µM | 21.1 µM
COc1ccccc1C1ON=C(c2ccc([N+](=O)[O-])cc2)N1C12CC3CC(CC(C3)C1)C2 (stereo unspecified) | > 100 µM | > 100 µM | > 100 µM | > 100 µM | > 100 µM | 71.9 µM | > 100 µM | > 100 µM | > 100 µM | > 100 µM | > 100 µM | > 100 µM | > 100 µM | > 100 µM | > 100 µM | > 100 µM | > 100 µM | > 100 µM
COC(O)C(=O)c1ccc2c(c1)CC1(C2)Cc2cc3c(cc2C1=O)CCC3 (stereo unspecified) | 70.6 µM | 34.8 µM | 31.4 µM | 58 µM | 38.6 µM | 38.8 µM | 44.1 µM | 47.1 µM | 64 µM | 73.3 µM | 37.1 µM | 42.3 µM | 43.3 µM | 52.3 µM | 47.4 µM | 30.3 µM | > 100 µM | 37.5 µM
